Measurements: PMC5829251, “NAD^+ analog reveals PARP-1 substrate-blocking mechanism and allosteric communication from catalytic center to DNA-binding domains” (Nature Communications, 2018)
“Also recorded” adds a separate entry of the source.

Legend:
Assay type in all cases: binding
PARP-1 CAT ΔHD [1] = biological target: T1, PARP-1 CAT ΔHD (Homo sapiens, UniProt P09874); experiment: DSF, PARP-1 CAT ΔHD; conditions: for TM: CAT ΔHD 5 μM, in °C (unit assumed)
T1 construct: a pET28 construct coding for PARP-1 residues 661-1011; made in house; host or cells: E. coli
Description: (§1) DSF experiments were performed as described, [13] using 5 µM protein, 2.5 µM DNA when indicated and various concentrations of compound (BAD, carba-NAD^+, benzamide, and ADP-ribose) as indicated in Fig. 1 and Fig. 3. Experiments were performed on a Roche LightCycler 480 RT-PCR. Reactions including DNA were performed with a 26- or 28-base pair (bp) unphosphorylated oligonucleotide for PARP-1, a 28-bp 5´-phosphorylated (5´P) oligonucleotide for PARP-2, and a 47-bp oligonucleotide including a central 5´P nick for PARP-3^13 in the following buffer: 25 mM Hepes pH 8.0, 150 mM NaCl, 1 mM EDTA, and 0.1 mM TCEP. Reactions with PARP-3 were conducted at lower ionic strength to allow binding to DNA as described (25 mM Hepes pH 8.0, 50 mM NaCl, 1 mM EDTA and 0.1 mM TCEP)[13]. ΔTM values were calculated by subtracting the TM determined for the protein in the absence of compound from the TM determined in the presence of compound. Experiments were performed in triplicate and a Boltzmann sigmoid was fit to the data to determine the TM values (KaleidaGraph).

PARP-1 CAT domain WT = biological target: T2, PARP-1 CAT domain WT (Homo sapiens, UniProt P09874); experiment: Differential scanning fluorimetry (DSF), PARP-1 CAT WT; conditions: for change of apparent TM of PARP-1 CAT WT (evidence of binding): 5 μM protein, various amounts of compound; for TM: in °C (unit assumed)
T2 construct: The PARP-1 CAT WT (residues 661–1014) was cloned in pET28 vector; made in house; host or cells: E. coli
Description: as §1

PARP-1 WT = biological target: T3, PARP-1 WT (Homo sapiens, UniProt P09874); experiment: Fluorescence polarization DNA affinity measurement assay; conditions: presence versus absence of compound
T3 construct: Full-length PARP-1 WT (residues 1–1014) was cloned in pET28 vector; made in house; host or cells: E. coli
Description: For the DNA competition assay, 40 nM PARP-1 WT, or PARP-1 ΔHD, was incubated with 20 nM of dumbbell DNA with a central nick carrying an internal fluorescent FAM group (5′-GCT GAG C/FAMT/T CTGGTGAAGCTCAGCTCGCGGCAGCTGGTGCTGCCGCGA-3′) for 30 min at RT in 12 mM Hepes pH 8.0, 60 mM KCl, 8 mM MgCl2, 4% glycerol, 5.7 mM beta-mercaptoethanol, 0.05 mg per ml bovine serm albumin with or without BAD or benzamide (500 μM). A competitor unlabeled DNA of the same sequence was added at 100 nM and FP was measured over time on a VictorV plate reader (Perkin Elmer). For the DNA affinity measurement assay, increasing concentrations of PARP-1 WT were incubated for 30 min at RT with 5 nM of dumbbell DNA probe carrying a nick (described above) in the absence or presence of BAD or benzamide (100 μM) in the following buffer: 12 mM Hepes pH 8.0, 250 mM NaCl, 4% glycerol, 5.7 mM beta-mercaptoethanol, 0.05 mg per ml bovine serum albumin.

PARP-1 CAT ΔHD [2] = biological target: T1, PARP-1 CAT ΔHD; experiment: ITC, PARP-1 CAT ΔHD; conditions: for n (stoichiometry): CAT ΔHD; for Kd: CAT ΔHD 50 μM, compound 525 μM titrated, 25°C
Description: ITC experiments were performed using a MicroCal iTC200 calorimeter (GE Healthcare). BAD or benzamide at 525 μM was titrated into PARP-1 protein (50 μM for CAT WT and CAT ΔHD, 40 μM for full-length PARP-1 WT and mutants) or PARP-1 protein with DNA (20–40 μM) at 25°C. Prior to the experiment, proteins and DNA were dialyzed in 25 mM Hepes pH 8.0, 150 mM NaCl, 1 mM EDTA, and 0.1 mM TCEP. BAD and benzamide were diluted in the dialysis buffer. PARP-1/DNA complexes were assembled and incubated at RT for 30 min prior to performing the experiment. Experiments were typically designed as follows: a first injection of 0.2 μL was followed by 16 injections of 2.5 μL with a spacing of 100 s between injections. Excess heat upon each injection was integrated using an automatically adjusted base line and derived values corrected by heat of dilution. Data analysis and curve fitting were conducted using Origin 7 software. The ITC experiment for each sample was performed either two (PARP-1 WT with benzamide, PARP-1 E763/D766/D770A with benzamide, PARP-1 D766/D770A with BAD) or three times (the remaining eight samples). Table 2 lists the average KD value and stoichiometry (n) for the replicates, and the reported errors are the calculated standard deviations (representing the range of values for experiments repeated two times). We anticipate that the sub-stoichiometric n values for CAT constructs results from either the active fraction being < 100%, or the protein concentration determination being not entirely accurate. The analysis of full-length PARP-1 yielded n values around the expected value of 1.

[3] = Figure 1e, compound 25 µM, TM without compound 41.26
[4] = Figure 1e, compound 150 µM, TM without compound 41.26
[5] = Figure 1e, compound 750 µM, TM without compound 41.26
[6] = Figure 1e, compound 1500 µM, TM without compound 41.26
[7] = Figure 1e, CAT WT 5 μM, compound 25 µM, TM without compound 51.58
[8] = Figure 1e, CAT WT 5 μM, compound 150 µM, TM without compound 51.58
[9] = Figure 1e, CAT WT 5 μM, compound 750 µM, TM without compound 51.58
[10] = Figure 1e, CAT WT 5 μM, compound 1500 µM, TM without compound 51.58

T2 sequence (P09874 661-1014): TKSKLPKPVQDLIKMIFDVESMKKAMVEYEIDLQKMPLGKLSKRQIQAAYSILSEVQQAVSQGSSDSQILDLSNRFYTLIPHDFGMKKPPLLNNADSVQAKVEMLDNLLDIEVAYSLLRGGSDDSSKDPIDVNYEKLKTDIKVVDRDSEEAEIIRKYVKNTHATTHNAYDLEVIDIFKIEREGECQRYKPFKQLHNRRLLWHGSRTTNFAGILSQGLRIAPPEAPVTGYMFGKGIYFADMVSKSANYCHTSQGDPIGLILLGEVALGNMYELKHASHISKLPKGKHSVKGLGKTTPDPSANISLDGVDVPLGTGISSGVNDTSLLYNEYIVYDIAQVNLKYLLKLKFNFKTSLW
T1 sequence (P09874 with tags, fused parts or gaps): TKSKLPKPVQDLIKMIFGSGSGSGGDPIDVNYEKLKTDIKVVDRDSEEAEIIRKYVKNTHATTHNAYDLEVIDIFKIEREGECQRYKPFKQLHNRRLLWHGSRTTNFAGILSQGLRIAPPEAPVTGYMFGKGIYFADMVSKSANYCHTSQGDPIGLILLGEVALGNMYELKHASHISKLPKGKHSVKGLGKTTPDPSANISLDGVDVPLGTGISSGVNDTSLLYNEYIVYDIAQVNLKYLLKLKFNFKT
T3 sequence (P09874 whole entry, the tested form may be a part): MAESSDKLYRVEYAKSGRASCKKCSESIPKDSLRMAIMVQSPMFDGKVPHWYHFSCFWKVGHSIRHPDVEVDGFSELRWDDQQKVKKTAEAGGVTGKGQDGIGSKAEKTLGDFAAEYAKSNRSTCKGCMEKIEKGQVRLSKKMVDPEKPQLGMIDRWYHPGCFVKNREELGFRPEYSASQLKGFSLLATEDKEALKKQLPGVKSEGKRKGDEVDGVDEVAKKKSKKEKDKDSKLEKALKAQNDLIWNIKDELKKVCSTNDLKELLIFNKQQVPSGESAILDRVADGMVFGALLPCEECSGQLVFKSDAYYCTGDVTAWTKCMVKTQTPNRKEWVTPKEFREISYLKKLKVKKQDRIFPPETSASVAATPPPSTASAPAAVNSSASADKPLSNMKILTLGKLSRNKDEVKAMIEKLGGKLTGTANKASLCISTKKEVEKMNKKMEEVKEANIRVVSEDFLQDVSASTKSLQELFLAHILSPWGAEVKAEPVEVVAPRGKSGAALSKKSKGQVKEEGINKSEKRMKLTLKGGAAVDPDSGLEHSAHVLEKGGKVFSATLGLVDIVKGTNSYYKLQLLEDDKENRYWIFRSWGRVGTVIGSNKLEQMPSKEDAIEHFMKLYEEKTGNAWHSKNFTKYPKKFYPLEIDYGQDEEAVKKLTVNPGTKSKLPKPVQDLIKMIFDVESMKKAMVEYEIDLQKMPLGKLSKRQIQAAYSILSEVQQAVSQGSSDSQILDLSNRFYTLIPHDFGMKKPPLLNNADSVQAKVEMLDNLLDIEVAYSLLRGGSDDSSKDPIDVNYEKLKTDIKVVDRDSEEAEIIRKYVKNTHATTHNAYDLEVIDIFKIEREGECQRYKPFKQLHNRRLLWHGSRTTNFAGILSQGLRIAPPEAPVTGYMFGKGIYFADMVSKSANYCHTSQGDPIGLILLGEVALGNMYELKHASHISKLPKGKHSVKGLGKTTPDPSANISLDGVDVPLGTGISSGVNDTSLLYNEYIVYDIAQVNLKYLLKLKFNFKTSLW

Compound | TM (PARP-1 CAT ΔHD [1]; [3]) | TM (PARP-1 CAT ΔHD [1]; [4]) | TM (PARP-1 CAT ΔHD [1]; [5]) | TM (PARP-1 CAT ΔHD [1]; [6]) | change of apparent TM of PARP-1 CAT WT (evidence of binding) (PARP-1 CAT domain WT) | TM (PARP-1 CAT domain WT; [7]) | TM (PARP-1 CAT domain WT; [8]) | TM (PARP-1 CAT domain WT; [9]) | TM (PARP-1 CAT domain WT; [10]) | increase in PARP-1 affinity for a DNA single-strand break (PARP-1 WT) | n (stoichiometry) (PARP-1 CAT ΔHD [2]) | Kd (PARP-1 CAT ΔHD [2]) [µM] | further results
NC(=O)c1cccc(C2OC(COP(=O)(O)OP(=O)(O)OCC3OC(n4cnc5c(N)ncnc54)C(O)C3O)C(O)C2O)c1 (stereo not shown) [BAD, benzamide adenine dinucleotide] | 45.52 | 48.60 | 49.27 | 51.95 | neither BAD nor carba-NAD^+ changed the apparent TM; also recorded: did not show evidence of binding | 51.48 | 51.45 | 51.64 | 51.60 | 10 fold | 0.63 + /− 0.09 | 5.87 | TM (PARP-1 CAT ΔHD [1]; Figure 1d, compound 50 µM, TM without compound 41.76): 47.02; TM (PARP-1 CAT ΔHD [1]; Figure 1d, compound 250 µM, TM without compound 41.76): 49.58; TM (PARP-1 CAT ΔHD [1]; Figure 1d, compound 1250 µM, TM without compound 41.76): 51.91; TM increase (ΔTM) of CAT ΔHD (PARP-1 CAT ΔHD [1]; at the highest concentration, 5 μM protein): 10 °C; increase in TM of PARP-1 CAT containing the HD (PARP-1 CAT domain WT; 4 mM BAD): no increase in TM; TM (PARP-1 CAT domain WT; Figure 1d, CAT WT 5 μM, compound 50 µM, TM without compound 51.23): 51.06; TM (PARP-1 CAT domain WT; Figure 1d, CAT WT 5 μM, compound 250 µM, TM without compound 51.23): 51.09; TM (PARP-1 CAT domain WT; Figure 1d, CAT WT 5 μM, compound 1250 µM, TM without compound 51.23): 51.30; TM (PARP-1 CAT domain WT; Figure 3d, PARP-1 CAT 5 μM, BAD 4 mM, TM without BAD 51.04): 51.21
NC(=O)c1ccccc1 [benzamide] | 43.73 | 46.20 | 46.99 | 49.98 | increased the TM | 52.53 | 54.28 | 54.86 | 57.12 | no effect | 0.39 + /− 0.01 | 3.21 | change of TM of CAT ΔHD (evidence of binding) (PARP-1 CAT ΔHD [1]; 5 μM protein, various amounts of compound): increased the TM
